The conditions of data set [1]: substance alone; cited from earlier work.
Data set [2] can be described thus: Solubilization of hydrophobic cargo in betaine/Polysorbate 80/water liquid crystal, centrifugation 4000 rpm. How it is done:
Mixing 2 ml of distilled water and 40 μL of Polysorbate 80, then adding 400 mg of pure curcumin, manually mixing and then adding 2 g of betaine all again mixed by vigorous manual stirring. The mixture of the 4 ingredients is then subjected for 20 minutes to a centrifugation of 4000 rpm.
(§1) The mixture of the 4 ingredients is then subjected for 30 minutes to a centrifugation of 4000 rpm.
The mixture of the 4 ingredients is then subjected for 40 minutes to a centrifugation of 4000 rpm.
as §1
Mixing 2 ml of distilled water and 35 μL of Polysorbate 80, then adding 50 mg of Clofazimine, mixing manually and then subjecting to a centrifugation of 4000 rpm and then adding 2 g of betaine all again mixed by vigorous manual stirring. The mixture of the 4 ingredients is then subjected for 30 minutes to a centrifugation of 4000 rpm.

The nature of data set [3]: Visual stability of the mother solution diluted in distilled water (pH 7) or acetic acid (pH 2.2). The class given is physicochemical. Particulars: absence of light, 24 h. How it is done: (§2) 400 μl of the solution produced are taken and poured into a tube of 5 ml of distilled water (pH 7).
400 μl of the solution produced are taken and poured into a tube of 5 ml of acetic acid (pH 2.2).
as §2
200 μl of the solution produced are taken and poured into a tube of 5 ml of distilled water (pH 7).
200 μl of the solution produced are taken and poured into a tube of 5 ml of acetic acid (pH 2.2).
250 μl of the solution produced are taken and poured into a tube of 5 ml of distilled water (pH 7).
250 μl of the solution produced are taken and poured into a tube of 5 ml of acetic acid (pH 2.2).

Data set [4] is described as follows: Redissolution of dried, ground liquid crystal powders and visual pH variation test. Particulars: for changes of resolubilized dry powder solution over time: absence of light, 24 h. The class given is physicochemical. How it is done: The remaining solution of the preceding example is poured into a glass Petri dish (diameter 35 mm) and subjected to drying at 60° C. in a hot air dehydrator (Stockli).
The dry product is then ground until it reaches±50 Mesh and stored in the absence of light and moisture for 10 days.
Next, 100 mg of dry powder are taken and poured into a tube of 5 ml of distilled water (pH 7).
Next, 100 mg of dry powder are taken and poured into a tube of 5 ml of acetic acid (pH 2.2).
Then this acidic solution is brought to an alkaline pH of 8 by adding sodium bicarbonate, in order to mimic the conditions of the pH differences encountered in the stomach and then the intestine.

The conditions of data set [5]: octanol/water partition coefficient; cited from earlier work.
Data set [6] is described as follows: Storage stability of the mother solution (deposition). Conditions: no ethanol.
The nature of data set [7]: DLS (Dynamic Light Scattering) particle size of resolubilized dry powder, Zetasizer. In kind it is physicochemical. Conditions: 100 mg dry powder in 100 ml pure water, kept in the dark 14 days. How it is done: 100 mg of dry powder of Curcumin of the preceding example are dissolved in 100 ml of pure water before being kept in the dark for 14 days. This solution is then evaluated with DLS (Dynamic Light Scattering) in a Zetasizer apparatus (University of Namur).

Setting [8] is: mother solution poured into 5 ml acetic acid (pH 2.2).
The mark [9] stands for this setting: mother solution poured into 5 ml distilled water (pH 7).

Converted amounts (≈) assume the structure as drawn. Where two headings read alike, the source gives them in different places.

The source of these data is patent US20230257653A1, “FRACTAL FORMULATIONS” (NANOGYRE Sprl., priority 2020, published 2023).

For orientation: Log P means a log measure of how a compound divides between an organic and an aqueous phase. On to `CC(C)/N=c1\cc2n(-c3ccc(Cl)cc3)c3ccccc3nc-2cc1Nc1ccc(Cl)cc1` [Clofazimine], for which the “Solubility in Water” value in data set [1] is 1.51 µg/mL (≈ 3.19 µM). Besides, the “estimated concentration of mother solution after centrifugation” value (“estimated concentration” for short) in data set [2] is 14.7 mg/mL. The “factor by which solubility in water was multiplied” value in data set [2] is given as 9730. The “solubilization result (visual)” value in data set [2] is “completely solubilized”. Also, the “changes of diluted solution over time” value in data set [3] (setting [8]) and in data set [3] (setting [9]) was “no changes over time” in each case. Moreover, the “dissolution of dry powder” value in data set [4] (100 mg dry powder (stored 10 days) in 5 ml acetic acid (pH 2.2)) and in data set [4] (100 mg dry powder (stored 10 days) in 5 ml distilled water (pH 7)) was “immediately solubilizes” each time. Further, the “changes of resolubilized dry powder solution over time” value in data set [4] (5 ml acetic acid (pH 2.2)) and in data set [4] (5 ml distilled water (pH 7)) was “no changes over time” in each case. In addition, the “stability of the acidic solution brought to alkaline pH” value in data set [4] (pH 2.2 solution brought to pH 8 with sodium bicarbonate) is “remains stable without any precipitation or modification”. The “Log P” value in data set [5] is on record as 7.39.
Regarding `C=C(C)[C@@H]1CCC(C)=C[C@H]1c1c(O)cc(CCCCC)cc1O` [Cannabidiol], the “estimated concentration” value in data set [2] (2 ml water, Polysorbate 80, 2 g betaine, no ethanol) is 47 mg/mL. In addition, the “stability of mother solution on storage” value in data set [6] is “remained stable without any deposition, or modification for a year”. Moreover, the “changes of diluted solution over time” value in data set [3] (setting [8]) and in data set [3] (setting [9]) was “no changes over time” throughout.
Turning to `COc1cc(/C=C/C(=O)CC(=O)/C=C/c2ccc(O)c(OC)c2)ccc1O` [Curcumin], the “Solubility in Water” value in data set [1] was 5.75 µg/mL (≈ 15.6 µM). Further, in data set [2], the “estimated concentration” value is 80 mg/mL, the “factor by which solubility in water was multiplied” value was 10,000 and the “non-solubilized fraction remaining in the bottom of the tube (pellet/base)” value is given as 30-40%. Besides, the “concentration of mother solution weighted for the pellet/base” value in data set [2] (2 ml water, 40 μL Polysorbate 80, 2 g betaine, no ethanol) is 60000 µg/mL. Besides, in data set [7], the “average particle size of the solution” value is recorded as no more than 10 nanometers and the polydispersity entry is “very low”. In addition, in data set [3] (setting [8]), the “changes of diluted solution over time” value is “no changes over time”. Further, the “changes of diluted solution over time” value in data set [3] (setting [9]) is reported as “no changes over time”.
